Read-outs that look alike come from different tables or passages of the source.
Tested on: HIV (LAV 1)
Assay: microbe, parasite or virus in culture
Conditions: for viability at 1 µg/mL / viability at 2.5 µg/mL / viability at 5 µg/mL / viability at 10 µg/mL: Human immunodeficiency virus 1, CCRF-CEM
Description: Human T cell-derived, T4 antigen-positive CEM cells (provided by the Institut Pasteur, France) were used as host cells of HIV. Cell culture was carried out in a carbon dioxide-containing atmosphere in an incubator maintained at 37°C according to a conventional method [cf. […] The culture supernatant (5×10⁶ TCID₅₀/ml) obtained by subjecting CEM cells to HIV (LAV 1) infection and stored at -70°C was used as the HIV source.
The medium for cell culture (10 ml) placed in a plastic culture flask (25 cm²) was inoculated with CEM cells at a cell density of 2.5×10⁵ cells/ml. After 3 days of incubation, the culture was transferred to a 15-ml centrifuge tube and subjected to centrifugation at 1,000 revolutions per minute for 5 minutes for sedimentation of cells and removal of the culture medium.
The stock viral suspension was added to the host cells thus prepared to an MOI of 0.05 and the mixture was maintained at 37°C for 90 minutes with stirring at 30-minute intervals for viral adsorption. The medium was added to HIV-infected cells to a cell density of 5.0×10⁵ cells/ml to give an HIV-infected cell suspension.
A mixture (1.0 ml) of the three constituents mentioned below was added to each well of a 24-well plastic culture plate and the test substance final concentration was adjusted to 10 mcg/ml, 5 mcg/ml, 2.5 mcg/ml or 1 mcg/ml. The "no addition" wells (0 mcg/ml) served as controls.
After 4 days of incubation following viral infection, the cells in each well on the 24-well culture plate were suspended uniformly by pipetting and a 0.5-ml portion of the suspension was separated. A 2.0-ml portion of test substance-free fresh medium was added to the remaining 0.5-ml portion of the cell suspension, followed by incubation.
Seven days after viral infection, pipetting was performed to give a uniform cell suspension in each well and a 0.5-ml portion of the suspension was separated.
Incubation was continued and, 10 days after viral infection, a uniform cell suspension was produced in the same manner in each well and a 1.5-ml portion thereof was separated. A fresh 2.0-ml portion of the medium free of (or containing) the test substance was added to the well, followed by further incubation.
Fifteen days after viral infection, the cells in each well were suspended uniformly in the same manner in the medium and a 2.0-ml portion of the suspension was separated. A fresh 2.0-ml portion of the medium free of (or containing) the test substance was added to the remaining 0.5 ml of the cell suspension and incubation was continued.
Medium exchange was performed in the same manner 20 days and 25 days after viral infection.
The cell suspensions collected 4 days, 7 days, 10 days, 20 days and 30 days after viral infection were tested for viable cell count and viable cell percentage by trypan blue staining. At the same time, viral antigen-positive cell percentage determination was carried out by immunofluorescence using an anti-HIV antiserum isolated from a healthy carrier of HIV.
The numerical values given each is the mean for the respective two wells on the culture plate. The viable cell count is the total cell count minus the count of dead cells stained with trypan blue. The viable cell percentage is the percentage of viable cells among all the cells including dead cells. The viral antigen-positive cell percentage is the percentage of cells indicating antigen expression as found among all the cells including dead cells.

[1] = 1 mcg/ml, 4-day addition, after 4 days
[2] = 1 mcg/ml, 4-day addition, after 7 days
[3] = 1 mcg/ml, 4-day addition, after 10 days
[4] = 1 mcg/ml, 4-day addition, after 20 days
[5] = 1 mcg/ml, continuous addition, after 4 days
[6] = 1 mcg/ml, continuous addition, after 7 days
[7] = 1 mcg/ml, continuous addition, after 10 days
[8] = 2.5 mcg/ml, 4-day addition, after 4 days
[9] = 2.5 mcg/ml, 4-day addition, after 7 days
[10] = 2.5 mcg/ml, 4-day addition, after 10 days
[11] = 2.5 mcg/ml, 4-day addition, after 20 days
[12] = 2.5 mcg/ml, 4-day addition, after 30 days
[13] = 2.5 mcg/ml, continuous addition, after 4 days
[14] = 2.5 mcg/ml, continuous addition, after 7 days
[15] = 2.5 mcg/ml, continuous addition, after 10 days
[16] = 2.5 mcg/ml, continuous addition, after 20 days
[17] = 2.5 mcg/ml, continuous addition, after 30 days
[18] = 5 mcg/ml, 4-day addition, after 4 days
[19] = 5 mcg/ml, 4-day addition, after 7 days
[20] = 5 mcg/ml, 4-day addition, after 10 days
[21] = 5 mcg/ml, 4-day addition, after 20 days
[22] = 5 mcg/ml, 4-day addition, after 30 days
[23] = 5 mcg/ml, continuous addition, after 4 days
[24] = 5 mcg/ml, continuous addition, after 7 days
[25] = 5 mcg/ml, continuous addition, after 10 days
[26] = 5 mcg/ml, continuous addition, after 20 days
[27] = 5 mcg/ml, continuous addition, after 30 days
[28] = 10 mcg/ml, 4-day addition, after 4 days
[29] = 10 mcg/ml, 4-day addition, after 7 days
[30] = 10 mcg/ml, 4-day addition, after 10 days
[31] = 10 mcg/ml, 4-day addition, after 20 days
[32] = 10 mcg/ml, 4-day addition, after 30 days
[33] = 10 mcg/ml, continuous addition, after 4 days
[34] = 10 mcg/ml, continuous addition, after 7 days
[35] = 10 mcg/ml, continuous addition, after 10 days
[36] = 10 mcg/ml, continuous addition, after 20 days
[37] = 10 mcg/ml, continuous addition, after 30 days

## CC1COc2c(N3CCN(C)CC3)c(F)cc3c(=O)c(C(=O)O)cn1c23 (racemic) [OFLX, (±)-9-fluoro-3-methyl-10-(4-methyl-1-piperazinyl)-7-oxo-2,3-dihydro-7H-pyrido[1,2,3-de][1,4]benzoxazine-6-carboxylic acid]
[1]
  Viable cell count: 260 × 10⁴ cells/ml
  Viral antigen-positive cell percentage: 88%
[2]
  Viable cell count: 43 × 10⁴ cells/ml
  Viral antigen-positive cell percentage: 80%
[3]
  Viable cell count: 13 × 10⁴ cells/ml
  Viral antigen-positive cell percentage: 77%
[4]
  Viable cell count: 34 × 10⁴ cells/ml
  Viral antigen-positive cell percentage: 16%
1 mcg/ml, 4-day addition, after 30 days
  Viable cell count: 10 × 10⁴ cells/ml
[5]
  Viable cell count: 300 × 10⁴ cells/ml
  Viral antigen-positive cell percentage: 82%
[6]
  Viable cell count: 39 × 10⁴ cells/ml
  Viral antigen-positive cell percentage: 78%
[7]
  Viable cell count: 46 × 10⁴ cells/ml
  Viral antigen-positive cell percentage: 85%
1 mcg/ml, continuous addition, after 20 days
  Viable cell count: 15 × 10⁴ cells/ml
1 mcg/ml, continuous addition, after 30 days
  Viable cell count: 11 × 10⁴ cells/ml
[8]
  Viable cell count: 260 × 10⁴ cells/ml
  Viral antigen-positive cell percentage: 80%
[9]
  Viable cell count: 58 × 10⁴ cells/ml
  Viral antigen-positive cell percentage: 67%
[10]
  Viable cell count: 83 × 10⁴ cells/ml
  Viral antigen-positive cell percentage: 49%
[11]
  Viable cell count: 300 × 10⁴ cells/ml
  Viral antigen-positive cell percentage: 4%
[12]
  Viable cell count: 300 × 10⁴ cells/ml
  Viral antigen-positive cell percentage: 6%
[13]
  Viable cell count: 260 × 10⁴ cells/ml
  Viral antigen-positive cell percentage: 83%
[14]
  Viable cell count: 59 × 10⁴ cells/ml
  Viral antigen-positive cell percentage: 62%
[15]
  Viable cell count: 110 × 10⁴ cells/ml
  Viral antigen-positive cell percentage: 38%
[16]
  Viable cell count: 220 × 10⁴ cells/ml
  Viral antigen-positive cell percentage: 17%
[17]
  Viable cell count: 360 × 10⁴ cells/ml
  Viral antigen-positive cell percentage: 10%
[18]
  Viable cell count: 250 × 10⁴ cells/ml
  Viral antigen-positive cell percentage: 82%
[19]
  Viable cell count: 60 × 10⁴ cells/ml
  Viral antigen-positive cell percentage: 50%
[20]
  Viable cell count: 170 × 10⁴ cells/ml
  Viral antigen-positive cell percentage: 33%
[21]
  Viable cell count: 320 × 10⁴ cells/ml
  Viral antigen-positive cell percentage: 5%
[22]
  Viable cell count: 330 × 10⁴ cells/ml
  Viral antigen-positive cell percentage: 4%
[23]
  Viable cell count: 340 × 10⁴ cells/ml
  Viral antigen-positive cell percentage: 75%
[24]
  Viable cell count: 58 × 10⁴ cells/ml
  Viral antigen-positive cell percentage: 76%
[25]
  Viable cell count: 160 × 10⁴ cells/ml
  Viral antigen-positive cell percentage: 40%
[26]
  Viable cell count: 300 × 10⁴ cells/ml
  Viral antigen-positive cell percentage: 11%
[27]
  Viable cell count: 290 × 10⁴ cells/ml
  Viral antigen-positive cell percentage: 2%
[28]
  Viable cell count: 260 × 10⁴ cells/ml
  Viral antigen-positive cell percentage: 74%
[29]
  Viable cell count: 63 × 10⁴ cells/ml
  Viral antigen-positive cell percentage: 63%
[30]
  Viable cell count: 280 × 10⁴ cells/ml
  Viral antigen-positive cell percentage: 40%
[31]
  Viable cell count: 310 × 10⁴ cells/ml
  Viral antigen-positive cell percentage: 14%
[32]
  Viable cell count: 320 × 10⁴ cells/ml
  Viral antigen-positive cell percentage: 3%
[33]
  Viable cell count: 280 × 10⁴ cells/ml
  Viral antigen-positive cell percentage: 78%
[34]
  Viable cell count: 55 × 10⁴ cells/ml
  Viral antigen-positive cell percentage: 72%
[35]
  Viable cell count: 130 × 10⁴ cells/ml
  Viral antigen-positive cell percentage: 43%
[36]
  Viable cell count: 290 × 10⁴ cells/ml
  Viral antigen-positive cell percentage: 9%
[37]
  Viable cell count: 390 × 10⁴ cells/ml
  Viral antigen-positive cell percentage: 6%
96 h, read-out: Viable cell percentage, 1 mcg/ml, 4-day addition, after 4 days
  viability at 1 µg/mL: 96%
96 h, read-out: Viable cell percentage, 1 mcg/ml, continuous addition, after 4 days
  viability at 1 µg/mL: 94%
96 h, read-out: Viable cell percentage, 2.5 mcg/ml, 4-day addition, after 4 days
  viability at 2.5 µg/mL: 96%
96 h, read-out: Viable cell percentage, 2.5 mcg/ml, continuous addition, after 4 days
  viability at 2.5 µg/mL: 94%
96 h, read-out: Viable cell percentage, 5 mcg/ml, 4-day addition, after 4 days
  viability at 5 µg/mL: 93%
96 h, read-out: Viable cell percentage, 5 mcg/ml, continuous addition, after 4 days
  viability at 5 µg/mL: 98%
96 h, read-out: Viable cell percentage, 10 mcg/ml, 4-day addition, after 4 days
  viability at 10 µg/mL: 94%
96 h, read-out: Viable cell percentage, 10 mcg/ml, continuous addition, after 4 days
  viability at 10 µg/mL: 95%
168 h, read-out: Viable cell percentage, 1 mcg/ml, continuous addition, after 7 days
  viability at 1 µg/mL: 55%
168 h, read-out: Viable cell percentage, 2.5 mcg/ml, continuous addition, after 7 days
  viability at 2.5 µg/mL: 64%
168 h, read-out: Viable cell percentage, 5 mcg/ml, continuous addition, after 7 days
  viability at 5 µg/mL: 64%
168 h, read-out: Viable cell percentage, 10 mcg/ml, continuous addition, after 7 days
  viability at 10 µg/mL: 66%
240 h, read-out: Viable cell percentage, 1 mcg/ml, continuous addition, after 10 days
  viability at 1 µg/mL: 42%
240 h, read-out: Viable cell percentage, 2.5 mcg/ml, continuous addition, after 10 days
  viability at 2.5 µg/mL: 81%
240 h, read-out: Viable cell percentage, 5 mcg/ml, continuous addition, after 10 days
  viability at 5 µg/mL: 87%
240 h, read-out: Viable cell percentage, 10 mcg/ml, continuous addition, after 10 days
  viability at 10 µg/mL: 87%
480 h, read-out: Viable cell percentage, 1 mcg/ml, continuous addition, after 20 days
  viability at 1 µg/mL: 75%
480 h, read-out: Viable cell percentage, 2.5 mcg/ml, continuous addition, after 20 days
  viability at 2.5 µg/mL: 94%
480 h, read-out: Viable cell percentage, 5 mcg/ml, continuous addition, after 20 days
  viability at 5 µg/mL: 95%
480 h, read-out: Viable cell percentage, 10 mcg/ml, continuous addition, after 20 days
  viability at 10 µg/mL: 92%
read-out: Viable cell percentage, 1 mcg/ml, 4-day addition, after 7 days
  viability at 1 µg/mL: 53%
read-out: Viable cell percentage, 1 mcg/ml, 4-day addition, after 10 days
  viability at 1 µg/mL: 21%
read-out: Viable cell percentage, 1 mcg/ml, 4-day addition, after 20 days
  viability at 1 µg/mL: 87%
read-out: Viable cell percentage, 1 mcg/ml, 4-day addition, after 30 days
  viability at 1 µg/mL: 37%
read-out: Viable cell percentage, 1 mcg/ml, continuous addition, after 30 days
  viability at 1 µg/mL: 33%
read-out: Viable cell percentage, 2.5 mcg/ml, 4-day addition, after 7 days
  viability at 2.5 µg/mL: 67%
read-out: Viable cell percentage, 2.5 mcg/ml, 4-day addition, after 10 days
  viability at 2.5 µg/mL: 67%
read-out: Viable cell percentage, 2.5 mcg/ml, 4-day addition, after 20 days
  viability at 2.5 µg/mL: 95%
read-out: Viable cell percentage, 2.5 mcg/ml, 4-day addition, after 30 days
  viability at 2.5 µg/mL: 97%
read-out: Viable cell percentage, 2.5 mcg/ml, continuous addition, after 30 days
  viability at 2.5 µg/mL: 97%
read-out: Viable cell percentage, 5 mcg/ml, 4-day addition, after 7 days
  viability at 5 µg/mL: 59%
read-out: Viable cell percentage, 5 mcg/ml, 4-day addition, after 10 days
  viability at 5 µg/mL: 77%
read-out: Viable cell percentage, 5 mcg/ml, 4-day addition, after 20 days
  viability at 5 µg/mL: 86%
read-out: Viable cell percentage, 5 mcg/ml, 4-day addition, after 30 days
  viability at 5 µg/mL: 97%
read-out: Viable cell percentage, 5 mcg/ml, continuous addition, after 30 days
  viability at 5 µg/mL: 94%
read-out: Viable cell percentage, 10 mcg/ml, 4-day addition, after 7 days
  viability at 10 µg/mL: 73%
read-out: Viable cell percentage, 10 mcg/ml, 4-day addition, after 10 days
  viability at 10 µg/mL: 85%
read-out: Viable cell percentage, 10 mcg/ml, 4-day addition, after 20 days
  viability at 10 µg/mL: 92%
read-out: Viable cell percentage, 10 mcg/ml, 4-day addition, after 30 days
  viability at 10 µg/mL: 95%
read-out: Viable cell percentage, 10 mcg/ml, continuous addition, after 30 days
  viability at 10 µg/mL: 95%
